One may read the IC50 as the midpoint of a concentration-inhibition curve.

Common to all, as to type: cell-based
The test system of assay [1] is Ishikawa cells. The assay is described as follows: […]-GLO luminescent cell viability assay, Ishikawa. Particulars: Homo sapiens, 72 h at 37° C., 5000 cells/well. As to the method: (§1) All the compounds were tested in the three cell lines. Different concentrations of compounds, ranging from about 0.01 nM to about 100,000 nM were delivered to […] cells per well, which were then incubated for three days at 37° C., followed by CTG assay.
(§2) In this assay, the number of viable cells in culture is determined based on the quantification of ATP present, which signals the presence of metabolically active cells. Damaged cells are not detected as the ATP leaked from these cells is quickly consumed by ATPases that are also released upon damage). The amount of ATP is determined using a system based on luciferase and D-luciferin resulting in light generation.
(§3) The cell lines were plated in 13, 96 well plates at a density of 5000 cells/well in total volumes of 50 μL in phenol-red free medium and incubated for overnight.
(§4) 25 μL of 40 nM estradiol should be added to all appropriate wells on the plate. […] 25 μL of stocks (containing the compounds to be tested, DMSO and phenol-red free medium) were added to cells and medium already on plate. 50 μL of medium were added to media wells, and 50 μL of mix (contain 32 mL DMSO+768 mL phenol-red free medium) to all vehicle control wells.
(§5) Luminescence results were read on TriLux Luminometer. The luminescent signal is proportional to the number of active cells present in culture. […] As a consequence, the number of metabolically active cells can be directly derived from the luminescent signal using a specific calibration curve. Data were expressed as percentage of untreated control (i.e. treatment value-blank/vehicle value blank), mean±SE for three replications.

Assay [2] deals with MDA-MB-231 estrogen receptor-negative breast cancer cell line. The assay is described as follows: […]-GLO luminescent cell viability assay, MDA-MB-231. Particulars: Homo sapiens, MDA-MB-231, 72 h at 37° C., 5000 cells/well. How it is done: as §1, §2, §3, §4, §5
Assay [3] concerns MCF-7 estrogen receptor-positive breast cancer cells. In words: […]-GLO luminescent cell viability assay, MCF-7. Particulars: Homo sapiens, MCF7, MCF-7, 72 h at 37° C., 5000 cells/well. How it is done:
as §1, §2, §3, §4, §5

SMILES strings stand for the structures. Converted amounts (≈) assume the structure as drawn.

`CCc1ccc(C(=O)NN2CCc3c(cccc3OC)C2)cc1` [Redda-EVK-I-062, 4-Ethyl-N-(5-methoxy-3,4-dihydroisoquinolin-2(1H)-yl)benzamide]: the IC50 in assay [1] worked out at 6.34 µg/mL (≈ 20.4 µM); in assay [2], 10.5 µg/mL (≈ 33.7 µM); in assay [3], 7.38 µg/mL (≈ 23.8 µM).

Regarding `CCc1ccc(C(=O)NN2CCc3ccc(OC)cc3C2)cc1` [Redda-EVK-I-074, 4-Ethyl-N-(7-methoxy-3,4-dihydroisoquinolin-2(1H)-yl)benzamide], the values for the IC50 in assay [1], in assay [2] and in assay [3] were 0.11 µg/mL (≈ 0.354 µM), 0.23 µg/mL (≈ 0.741 µM) and 0.25 µg/mL (≈ 0.805 µM), respectively.

As for `CCc1ccc(C(=O)NN2CCc3c(Br)ccc(Br)c3C2)cc1` [Redda-EVK-I-079, N-(5,8-Dibromo-3,4-dihydroisoquinolin-2(1H)-yl)-4-ethylbenzamide], the IC50 in assay [1] worked out at 0.84 µg/mL (≈ 1.92 µM); in assay [2], 1.71 µg/mL (≈ 3.9 µM); in assay [3], 2.34 µg/mL (≈ 5.34 µM).

Turning to `CCc1ccc(C(=O)NN2CCc3ccccc3C2)cc1` [Redda-GM-3-121, N-(3,4-Dihydroisoquinolin-2(1H)-yl)-4-ethylbenzamide], the IC50 in assay [1] was 0.01 µg/mL (≈ 0.0357 µM); in assay [2] it was 0.37 µg/mL (≈ 1.32 µM); in assay [3], 0.43 µg/mL (≈ 1.53 µM).

Take `CCCc1ccc(C(=O)NN2CCc3ccccc3C2)cc1` [Redda-GM-3-122, N-(3,4-Dihydroxyisoquinolin-2(1H)-yl)-4-propylbenzamide]: the IC50 in assay [1] was determined as 0.75 µg/mL (≈ 2.55 µM); in assay [2] it was 3.26 µg/mL (≈ 11.1 µM); in assay [3], 3.71 µg/mL (≈ 12.6 µM).

Take `O=C(NN1CCc2ccccc2C1)c1ccc(Br)cc1` [Redda-GM-3-135, 4-Bromo-N-(3,4-dihydroisoquinolin-2(1H)-yl)benzamide]: the IC50 in assay [1] worked out at 0.02 µg/mL (≈ 0.0604 µM); in assay [2] it was 4.34 µg/mL (≈ 13.1 µM); in assay [3], 0.7 µg/mL (≈ 2.11 µM).

On to `O=C(NN1CCc2ccccc2C1)c1ccc(C(F)(F)F)cc1` [Redda-GM-3-143, N-(3,4-Dihydroisoquinolin-2-(1H)-yl)-4-(trifluoromethyl)benzamide], for which the results for the IC50 in assay [1], in assay [2] and in assay [3] were 0.5 µg/mL (≈ 1.56 µM), 4.85 µg/mL (≈ 15.1 µM) and 3.15 µg/mL (≈ 9.83 µM), respectively.

In the case of `CCCCc1ccc(C(=O)NN2CCc3ccccc3C2)cc1` [Redda-GM-3-156, 4-Butyl-N-(3,4-dihydrozyisoquinolin-2(1H)-yl)benzamide], the results for the IC50 in assay [1], in assay [2] and in assay [3] were 0.96 µg/mL (≈ 3.11 µM), 7.03 µg/mL (≈ 22.8 µM) and 3.05 µg/mL (≈ 9.89 µM), respectively.

Consider `O=C(NN1CCc2ccccc2C1)c1nc2ccccc2s1` [Redda-GM-3-177, N-(3,4-Dihydroisoquinolin-2-(1H)-yl)benzo[d]thiazole-2-carboxamide], for which the IC50 turned out to be 8.98 µg/mL (≈ 29 µM) in assay [1], 13.1 µg/mL (≈ 42.4 µM) in assay [2] and 15 µg/mL (≈ 48.5 µM) in assay [3].

As to `CC(C)(C)c1ccc(C(=O)NN2CCc3ccc(O)cc3C2)cc1` [Redda-GM-4-40, 4-(tert-Butyl)-N-(7-hydroxy-3,4-dihydroisoquinolin-2(1H)-yl)benzamide], the IC50 was found to be 0.95 µg/mL (≈ 2.93 µM) in assay [1], 4.7 µg/mL (≈ 14.5 µM) in assay [2] and 2.3 µg/mL (≈ 7.09 µM) in assay [3].

Turning to `CCc1ccc(C(=O)NN2CCc3ccc(O)cc3C2)cc1` [Redda-GM-4-53, 4-Ethyl-N-(7-hydroxy-3,4-dihydroisoquinolin-2-(1H)-yl)benzamide], the IC50 was 0.08 µg/mL (≈ 0.27 µM) in assay [1], 0.13 µg/mL (≈ 0.439 µM) in assay [2] and 0.2 µg/mL (≈ 0.675 µM) in assay [3].

`CCc1ccc(C(=O)NN2CCc3c(Br)cccc3C2)cc1` [Redda-GM-4-62, N-(5-Bromo-3,4-dihyroisoquinolin-2(1H)-yl)-4-ethylbenzamide]: the IC50 in assay [1] turned out to be 1.15 µg/mL (≈ 3.2 µM); in assay [2], 6.01 µg/mL (≈ 16.7 µM); in assay [3], 3.5 µg/mL (≈ 9.74 µM).

These data come from patent publication US8889713B1, “N-substituted tetrahydroisoquinoline benzamides/benzene sulfonamides as anti-cancer agents” (Florida A&M University, priority 2013, dated 2014).
